# From ChEMBL document CHEMBL1201862, “PubChem BioAssay data set” (2004)
#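 Cultured in 96-well plates, cells were exposed to test compound for 48 hours across five concentrations. Abbreviation: GI50, concentration required for 50% inhibition of growth.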 Calls of active or inactive are those of the source. No stated cut-off is given here; in the data, active = GI50 up to about 1.1 µM and inactive = higher.
# How the values were obtained:
# Assay in all cases: NCI anticancer screen, dose series, 48 h
# [1] = tested on: A498
# [2] = tested on: HOP-62
# [3] = tested on: SN12C
# [4] = tested on: HT-29
# [5] = tested on: SK-MEL-28
# [6] = tested on: HCT-15
# [7] = tested on: UO-31
# [8] = tested on: SK-OV-3
# [9] = tested on: DMS-273
# [10] = tested on: SW-620
# [11] = tested on: SF-539
# [12] = tested on: KM12
# [13] = tested on: NCI-H23
# [14] = tested on: SNB-19
# [15] = tested on: OVCAR-8
# [16] = tested on: CCRF-CEM
# [17] = tested on: OVCAR-5
# [18] = tested on: OVCAR-3
# [19] = tested on: SNB-75
Structure (SMILES),GI50 [1],GI50 [2],GI50 [3],GI50 [4],GI50 [5],GI50 [6],GI50 [7],GI50 [8],GI50 [9],GI50 [10],GI50 [11],GI50 [12],GI50 [13],GI50 [14],GI50 [15],GI50 [16],GI50 [17],GI50 [18],GI50 [19]
CC1NC(=O)C(C)C(c2ccccc2)N(N=O)C1c1ccccc1 (configuration not stated),12.8 µM (inactive),> 87.9 µM (inactive),> 100 µM (inactive),29.2 µM (inactive),> 100 µM (inactive),55.2 µM,> 92.5 µM (inactive),28.2 µM (inactive),63 µM (inactive),> 100 µM (inactive),> 100 µM (inactive),74.1 µM (inactive),> 100 µM (inactive),> 76.9 µM (inactive),> 100 µM (inactive),55.7 µM (inactive),> 100 µM (inactive),> 52.5 µM (inactive),> 38.3 µM (inactive)
ClCc1ccc2ccc3ccc(CCl)nc3c2n1,10.6 µM (inactive),4.29 µM (inactive),2.36 µM (inactive),2.17 µM (inactive),1.83 µM (inactive),1.78 µM,1.69 µM (inactive),8.89 µM (inactive),2.2 µM (inactive),2.5 µM (inactive),2.25 µM (inactive),0.9 µM (active),2.9 µM (inactive),11.9 µM (inactive),3.36 µM (inactive),1.8 µM (inactive),2.85 µM (inactive),1.94 µM (inactive),1.95 µM (inactive)
COc1cc2c(ccc3c4cc(OC)c(OC)cc4c[n+](C)c23)cc1O [FAGARONINE],3.94 µM (inactive),2.3 µM (inactive),0.726 µM (active),> 73.3 µM (inactive),52.7 µM (inactive),> 73.3 µM,> 72.8 µM (inactive),21.6 µM (inactive),5.75 µM (inactive),12.7 µM (inactive),2.88 µM (inactive),> 75 µM (inactive),7.76 µM (inactive),1.15 µM (inactive),1.69 µM (inactive),2.02 µM (inactive),24 µM (inactive),4.72 µM (inactive),2.9 µM (inactive)
